Test results from patent US20170239212A1, “[…] AND USE THEREOF AS ANTIVIRAL AGENTS” (priority 2014, published 2017).

Tests used:
[1] = biological target: mouse recombinant isozyme PKCα (Mus musculus, UniProt P20444); experiment: [3H]PDBu binding assay (polyethylene glycol precipitation); conditions: calcium and phosphatidylserine present, 2 nM [3H]PDBu, read-out: Ki (inhibitory dissociation constant, displacement of [3H]PDBu)
Method: [^3H]PDBu Binding Assay. The inhibitory dissociation constant (Ki) of each bryologue ligand was determined by the ability of the ligand to displace bound [20-^3H]phorbol 12,13-dibutyrate (PDBu) from mouse recombinant isozyme PKCα in the presence of calcium and phosphatidylserine, using a polyethylene glycol precipitation assay developed in our laboratory as described elsewhere. Briefly, the assay mixture (250 μL) contained 50 mM Tris-HCl (pH 7.4 at room temperature), 100 μg/mL phosphatidylserine, 0.1 mM Ca^2+, 4 mg/mL bovine immunoglobulin G and 0.003% Tx-100, 2 nM [^3H]PDBu and various concentrations of the competing ligand. […] The radioactivity was determined by scintillation counting, using Cytoscint (ICN, Costa Mesa, Calif.). Specific binding was calculated as the difference between total and nonspecific PDBu binding. The Inhibitory dissociation constants (Ki) were calculated using the method previously described by Blumberg and Lewin.
The inhibitory dissociation constant (Ki) of MERLE 28 was determined by the ability of the ligand to displace bound [20-^3H]phorbol 12,13-dibutyrate (PDBu) from mouse recombinant isozyme PKCα in the presence of calcium and phosphatidylserine, using a polyethylene glycol precipitation assay previously described by Blumberg and Lewin. […] The radioactivity was determined by scintillation counting, using Cytoscint (ICN, Costa Mesa, Calif.). […]

[2] = system: human osteosarcoma (HOS) cells; experiment: HOS cell viability (CellTiter-Glo, cellular ATP); format: cell-based; set-up: unit not given here; conditions: knock down of cellular ATP
Method: (§1) Specifically, EC50 and CC50 values were determined in parallel using 10 concentrations of compound from 3 fold serial dilutions starting a 5 uM as the highest concentration. Cells and media were added to compounds with a final concentration of DMSO of 1% and incubated at 37° C., 5% CO2 for 24, 48 and 72 hours. EC50 was measured by induced luciferase activity detected by the use of the Steady-Glo® Luciferase reagent (PROMEGA) with an EnVision (Perkin-Elmer) plate reader. CC50 was determined by the dose dependent knock down of cellular ATP detected by the use of CellTiter-Glo® Luminescent Cell Viability reagent (PROMEGA) with an EnVision (Perkin-Elmer) plate reader.

[3] = system: HIV long terminal repeat (LTR) promoter; experiment: HOS LTR stimulation assay (luciferase reporter); format: cell-based; conditions: HOS cells; for Max signal (% of control): LTR-luciferase signal; for EC50: LTR-luciferase, incubated 24, 48 and 72 hours (time of the listed values not stated), read-out: EC50; for Conc (uM) at Max: concentration at maximal LTR-luciferase signal
Method: In the assay, non T cell derived human osteosarcoma (HOS) cells are transfected with a luciferase reporter under control of an HIV long terminal repeat (LTR) promoter. Compounds that stimulate the HIV LTR promoter will produce luciferase in a dose dependent manner.
as §1
The error bars represent the average and the standard error of the mean of at least three independent experiments.

Jurkat cell line = experiment: in vitro; format: cell-based; conditions: Jurkat cells, knock down of cellular ATP
Method: as §1, with “The compounds were also tested in the T cell derived Jurkat cell line transfected with a luciferase reporter under control of an HIV long terminal repeat (LTR) promoter. Specifically,” for “Specifically,”

[4] = biological target: HIV long terminal repeat (LTR) promoter; experiment: in vitro; format: cell-based; conditions: Jurkat cells; for EC50: LTR-luciferase, incubated 24, 48 and 72 hours (time of the listed values not stated)
Method: as §1, with “The compounds were also tested in the T cell derived Jurkat cell line transfected with a luciferase reporter under control of an HIV long terminal repeat (LTR) promoter. Specifically,” for “Specifically,”

in vitro = format: cell-based; conditions: human; Jurkat cells, knock down of cellular ATP
Method: as §1, with “The compounds were also tested in the T cell derived Jurkat cell line transfected with a luciferase reporter under control of an HIV long terminal repeat (LTR) promoter. Specifically,” for “Specifically,”

| Structure (SMILES) | Ki [1] | CCEC50 [2] | Max signal (% of control) [3] | EC50 [3] | Conc (uM) at Max [3] | CC50 (Jurkat cell line) | EC50 [4] | Selectivity (CC50:EC50) ([4]; ratio of the CC50 to the EC50) | EC50 ([3]; Human immunodeficiency virus 1) | CC50 (in vitro) | EC50 ([4]; Human immunodeficiency virus 1) | selectivity ratio ([4]; human, ratio of the CC50 to the EC50) |
| --- | --- | --- | --- | --- | --- | --- | --- | --- | --- | --- | --- | --- |
| C=C1C[C@H]2C[C@H]3C[C@@H](OC(C)=O)C[C@@H](C[C@@H](O)CC(=O)O[C@@H]([C@@H](C)O)C[C@@H]4C/C(=C\C(=O)OC)[C@H](OC(=O)CCCCCCC)[C@@](O)(O4)C(C)(C)/C=C/[C@@H](C1)O2)O3 [MERLE 27] | 3 ± 0.06 nM | – | – | – | – | – | – | – | – | – | – | – |
| COC(=O)/C=C1/C[C@H]2C[C@]3(O)O[C@H](C[C@@H](O)CC(=O)O[C@@H]([C@@H](C)O)C[C@@H]4C/C(=C\C(=O)OC)[C@H](OC(C)=O)[C@@](O)(O4)C(C)(C)/C=C/[C@@H](C1)O2)C[C@H](OC(C)=O)C3(C)C [Bryostatin 7] | – | 6.24 | 250 % of control | 6 nM | 0.07 µM | 4.6 nM | 1 nM | 4.6 | – | – | – | – |
| CC(=O)O[C@@]12C[C@@H](C)[C@@]3(O)[C@@H](C=C(CO)C[C@]4(O)C(=O)C(C)=C[C@@H]34)[C@@H]1C2(C)C [Prostratin] | – | >50 | 274 % of control | – | 27.78 µM | – | – | – | 1080 nM | 370 nM | 130 nM | 2.8 |
